Data as given in patent US20060166941A1, “Treatment and/or prevention of non-viral epithelial damage” (Epistem Limited, priority 2003, published 2006).
Where “and” joins values, the source holds several entries; their conditions need not be identical. Equal values may be shown once. Where a name gives a salt, the structure may show the parent alone.

Assays:
[1] = system: clonogenic stem cells of the digestive epithelium; assay: In vivo protection of intestinal epithelium clonogenic stem cells, chemotherapy drug damage, independent experiment 2; set-up: species or system mice
Procedure: In Vivo Protection of Intestinal Epithelium Clonogenic Stem Cells—Chemotherapy Drug Damage—Independent Experiment 2.
The data presented in Example 4 were expanded in the following study, in which the ability of foscarnet (phosphonoformic acid trisodium salt hexahydrate) to prevent cytotoxic damage to clonogenic stem cells of the digestive epithelium was investigated using the following experiment.
The model of cytotoxic insult used was treatment with 2 doses of 5-Flurouracil 6 hours apart at 400 mg of 5-Fluorouracil/kilogram bodyweight. Such cytotoxic treatment provides a model of chemotherapy administered to patients undergoing treatment for cancer.
8 experimental groups, each of six mice, were established as set out below:
Group 1: Received intra-peritoneal injection, containing 50 mg foscarnet/kilogram bodyweight, in sterile water, one hour prior to the first cytotoxic treatment. Received one further identical injection on each of the three days following cytotoxic treatment.
Group 2: Received intra-peritoneal injection, containing 50 mg foscarnet/kilogram bodyweight, in sterile water, one hour prior to the first cytotoxic treatment.
Group 3: Received intra-peritoneal injection, containing 50 mg foscarnet/kilogram bodyweight, in sterile water on each of the three days following cytotoxic treatment.
Group 4: Received intra-peritoneal injection, containing 50 mg foscarnet/kilogram bodyweight, in sterile water, 5 minutes prior to the first cytotoxic treatment. Received one further identical injection on each of the three days following cytotoxic treatment.
Group 5: Vehicle control. Received intra-peritoneal injection, of sterile water, one hour prior to the first cytotoxic treatment. Received one further identical injection on each of the days following cytotoxic treatment.
Group 6: Vehicle control. Received intra-peritoneal injection, of sterile water, one hour prior to the first cytotoxic treatment.
Group 7: Vehicle control. Received intra-peritoneal injection, of sterile water, on each of the three days following cytotoxic treatment.
Group 8: Vehicle control. Received intra-peritoneal injection, of sterile water, 5 minutes prior to the first cytotoxic treatment. Received one further identical injection on each of the three days following cytotoxic treatment.
On the fourth day after treatment the animals of each group were killed, and intestinal tissue harvested for histological analysis. Tissue sections were stained with haemotoxylin and eosin, and were analysed for the presence of regenerating intestinal crypts. Regenerating intestinal crypts are derived from one or more surviving clonogenic stem cells, whereas sterilised crypts (containing no surviving stem cells) disappear within two days of irradiation. The number of regenerating crypts per intestinal circumference was counted, and the mean crypt width measured. Scores for each animal were then corrected to account for the probability of preferentially scoring larger crypts according to the following equation: [formula]
For each treatment a Protection Factor was calculated using the following equation: corrected crypts/circumference treated corrected crypts/circumference untreated (vehicle)

[2] = system: digestive epithelia; assay: Diarrhoea prevention assay, 14 Gy X-ray partial body radiation; type: in vivo, mice; settings: for incidence of diarrhoea (perianal soilage): 5 mice
Excerpt: Diarrhoea Prevention Assay The ability of foscarnet (phosphonoformic acid trisodium salt hexahydrate) to prevent diarrhoea following radiological injury to digestive epithelia was investigated. The model of radiological insult used was treatment with 14 Gy X-ray partial body radiation (head and thorax lead shielded) at a dose rate of 0.7 Gy/minute. Such radiation treatment provides a model of radiotherapy administered to patients undergoing treatment for cancer. Three experimental groups, each of five mice, were established as set out below: Group 1: Received intra-peritoneal injection, containing 50 mg foscarnet/kilogram bodyweight, in sterile water, one hour prior to radiation treatment. Received one further identical injection on each of the next five days following radiation treatment. Group 2: Received intra-peritoneal injection, containing 100 mg foscarnet/kilogram bodyweight, in sterile water, one hour prior to radiation treatment. Received one further identical injection on each of the next five days following radiation treatment. Group 3: Vehicle control. […] Received intra-peritoneal injection, of sterile water, one hour prior to radiation treatment. Received one further identical injection on each of the next five days following radiation treatment. The incidences of both diarrhoea (measured by assessing perianal soilage twice daily) and morbidity among experimental animals were measured over the course of the seven days following radiation treatment.

[3] = 400 mg/kg 5FU x 2 6 hours apart plus 50 mg foscarnet/kg -5 minutes, D1, D2, D3, group Ave
[4] = 400 mg/kg 5FU x 2 6 hours apart plus 50 mg foscarnet/kg -5 minutes, D1, D2, D3, individual mice
[5] = 400 mg/kg 5FU x 2 6 hours apart plus 50 mg foscarnet/kg -1 hr only, group Ave
[6] = 400 mg/kg 5FU x 2 6 hours apart plus 50 mg foscarnet/kg -1 hr only, individual mice
[7] = 400 mg/kg 5FU x 2 6 hours apart plus 50 mg foscarnet/kg -1 hr, D1, D2, D3, group Ave
[8] = 400 mg/kg 5FU x 2 6 hours apart plus 50 mg foscarnet/kg -1 hr, D1, D2, D3, individual mice
[9] = 400 mg/kg 5FU x 2 6 hours apart plus 50 mg foscarnet/kg D1, D2, D3, group Ave
[10] = 400 mg/kg 5FU x 2 6 hours apart plus 50 mg foscarnet/kg D1, D2, D3, individual mice
[11] = group 1: 50 mg/kg foscarnet 1 hr prior to first 5-Flurouracil dose (400 mg/kg x 2) and 3 days after

**Q.** For `O=C(O)P(=O)(O)O` [foscarnet, phosphonoformic acid trisodium salt hexahydrate], which “Protection Factor” value ([1]; 50 mg foscarnet/kg 5 minutes prior to 1st dose of 5-Flurouracil (400 mg/kg x 2 6 hrs apart) and D1, D2 & D3) is on record?
**A.** 1.11

**Q.** And the “Protection Factor” value ([1]; 50 mg foscarnet/kg 1 hr prior to 1st dose of 5-Flurouracil (400 mg/kg x 2 6 hrs apart))?
**A.** 1.12

**Q.** What about the “Protection Factor” value ([1]; 50 mg foscarnet/kg 1 hr prior to 1st dose of 5-Flurouracil (400 mg/kg x 2 6 hrs apart) and D1, D2 & D3) of the same molecule?
**A.** 1.62

**Q.** What about the “Protection Factor” value ([1]; 50 mg foscarnet/kg D1, D2, D3 following 5-Flurouracil (400 mg/kg x 2 6 hrs apart)) of the same molecule?
**A.** 1.13

**Q.** And the corrected crypts/circumference [1, 3]?
**A.** 25.12

**Q.** And the no. crypts/circumference [1, 3]?
**A.** 26.97

**Q.** What about the corrected crypts/circumference [1, 4] of the same molecule?
**A.** 13.01 and 39.74 and 38.64 and 15.78 and 24.39 and 19.14

**Q.** And the no. crypts/circumference [1, 4]?
**A.** 13.20 and 46.50 and 40.10 and 16.30 and 24.30 and 21.40

**Q.** What about the corrected crypts/circumference [1, 5] of the same molecule?
**A.** 22.70

**Q.** And the no. crypts/circumference [1, 5]?
**A.** 24.62

**Q.** What about the corrected crypts/circumference [1, 6] of the same molecule?
**A.** 35.09 and 16.52 and 22.90 and 30.41 and 11.28 and 20.01

**Q.** What about the no. crypts/circumference [1, 6] of the same molecule?
**A.** 42.50 and 16.20 and 24.70 and 32.80 and 11.70 and 19.80

**Q.** And the corrected crypts/circumference [1, 7]?
**A.** 29.76

**Q.** What about the no. crypts/circumference [1, 7] of the same molecule?
**A.** 31.28

**Q.** What about the corrected crypts/circumference [1, 8] of the same molecule?
**A.** 42.10 and 17.28 and 33.67 and 29.92 and 31.88 and 23.71

**Q.** And the no. crypts/circumference [1, 8]?
**A.** 44.90 and 16.00 and 35.70 and 32.50 and 34.30 and 24.30

**Q.** And the corrected crypts/circumference [1, 9]?
**A.** 19.78

**Q.** What about the no. crypts/circumference [1, 9] of the same molecule?
**A.** 19.58

**Q.** What about the corrected crypts/circumference [1, 10] of the same molecule?
**A.** 13.74 and 9.34 and 35.87 and 23.12 and 21.45 and 15.14

**Q.** And the no. crypts/circumference [1, 10]?
**A.** 14.10 and 8.50 and 35.50 and 24.10 and 19.20 and 16.10

**Q.** And the “numbers of intestinal crypts after exposure to 5-Flurouracil” value ([1]; Groups 1, 2, 3 and 4 (50 mg foscarnet/kg regimens))?
**A.** increased numbers of intestinal crypts

**Q.** What about the “more crypts compared to mice treated with vehicle alone” value [1, 11] of the same molecule?
**A.** ~50%

**Q.** And the “more small intestinal clonogenic stem cells survived” value [1, 11]?
**A.** at least 50%

**Q.** And the “protection against the deleterious effects of radiation treatment” value ([2]; 50 mg per kilogram bodyweight, 14 Gy partial body)?
**A.** protects completely

**Q.** What about the “incidence of diarrhoea (perianal soilage)” value ([2]; 50 mg/kg intra-peritoneal 1 hr before 14 Gy and daily for 5 days, Day 3) of the same molecule?
**A.** No

**Q.** What about the “incidence of diarrhoea (perianal soilage)” value ([2]; 50 mg/kg intra-peritoneal 1 hr before 14 Gy and daily for 5 days, Day 4) of the same molecule?
**A.** No diarrhoea

**Q.** And the “incidence of diarrhoea (perianal soilage)” value ([2]; 50 mg/kg intra-peritoneal 1 hr before 14 Gy and daily for 5 days, Day 5)?
**A.** No diarrhoea

**Q.** And the “incidence of diarrhoea (perianal soilage)” value ([2]; 50 mg/kg intra-peritoneal 1 hr before 14 Gy and daily for 5 days, Day 6)?
**A.** No diarrhoea

**Q.** And the “incidence of diarrhoea (perianal soilage)” value ([2]; 50 mg/kg intra-peritoneal 1 hr before 14 Gy and daily for 5 days, Day 7)?
**A.** No diarrhoea

**Q.** And the “incidence of diarrhoea or associated morbidity compared to vehicle controls” value ([2]; 100 mg per kilogram bodyweight, 14 Gy partial body)?
**A.** reduced incidence of diarrhoea or associated morbidity

**Q.** And the “incidence of diarrhoea (perianal soilage)” value ([2]; 100 mg/kg intra-peritoneal 1 hr before 14 Gy and daily for 5 days, Day 3)?
**A.** No

**Q.** What about the “incidence of diarrhoea (perianal soilage)” value ([2]; 100 mg/kg intra-peritoneal 1 hr before 14 Gy and daily for 5 days, Day 4) of the same molecule?
**A.** No diarrhoea

**Q.** And the “incidence of diarrhoea (perianal soilage)” value ([2]; 100 mg/kg intra-peritoneal 1 hr before 14 Gy and daily for 5 days, Day 5)?
**A.** No diarrhoea

**Q.** What about the “incidence of diarrhoea (perianal soilage)” value ([2]; 100 mg/kg intra-peritoneal 1 hr before 14 Gy and daily for 5 days, Day 6) of the same molecule?
**A.** 2 mice had

**Q.** What about the “incidence of diarrhoea (perianal soilage)” value ([2]; 100 mg/kg intra-peritoneal 1 hr before 14 Gy and daily for 5 days, Day 7) of the same molecule?
**A.** 1 mouse had diarrhoea
